This note sets out measurements from ChEMBL document CHEMBL1141353, “Three biscembranoids and their monomeric counterpart cembranoid, a biogenetic Diels-Alder precursor, from the soft coral Sarcophyton elegans” (J Nat Prod, 2007).

The term LC50 denotes the concentration lethal to half of the exposed cells or organisms.

Data set [1] deals with Escherichia coli. Put plainly: Antibacterial activity against Escherichia coli at 1.5 ug/ml. Type of data set: functional, organism-based.
Data set [2] is described as follows: Toxicity in brine shrimp assessed as survival rate after 24 hrs. Particulars: artemia salina, in vivo. The format is organism-based.

Calls of active or inactive are those of the source. No cut-off for these calls is given here.

With `COC(=O)[C@]12CC(=O)[C@H](C(C)C)CC(=O)[C@H](C)CCC[C@H](C)CC(=O)[C@H]1CC(C)=C1C[C@H](O)[C@@]3(C)O[C@@H](CC/C(C)=C/[C@@H]12)[C@@]1(C)CC[C@@H]3O1`, the outcome in data set [1] was Active. Take `COC(=O)/C1=C/C(=O)C[C@@H](C)CCC[C@@H](C)C(=O)C[C@@H](C(C)C)C(=O)C1` [METHYL TETRAHYDROSARCOATE]: in data set [2], the LC50 at 24 h is 1500 nM. Consider `COC(=O)[C@]12CC(=O)[C@H](C(C)C)CC(=O)[C@H](C)CCC[C@H](C)CC(=O)[C@H]1CC(C)=C1C[C@H](O)[C@]3(C)O[C@@H]3CC[C@]3(C)O[C@@H]3CC/C(C)=C/[C@@H]12` [DIEPOXYNYALOLIDE], for which the LC50 at 24 h in data set [2] amounted to 1500 nM.
